# From paper PMC11790956, “A microscale thermophoresis-based enzymatic RNA methyltransferase assay enables the discovery of DNMT2 inhibitors” (Communications Chemistry, 2025)
# Tests used:
# [1] = target: aptaSAH1&2 SAH split aptamer; test: Split aptamer (aptaSAH1&2) plate reader-based FRET ligand titration; assay type: binding, D. aromatica; details: for Kd: FRET, aptaSAH1&2 each 50 nM, λex = 485 nm, λem = 600 nm, read-out: apparent KD
# Excerpt: In our study, we followed the aim of developing a fluorescent split aptamer SAH biosensor (Fig. 1A) from the natural non-split metH RNA aptamer. The concept of fluorescent split aptamers relies on a series of two or more independent fluorescently labeled aptamer oligonucleotides, able to assemble only in the presence of a specific target ligand. In a FRET-based approach, two fragments carry a FRET-pair of communicating fluorescent dyes, such that, upon excitation of the donor dye, the acceptor dye will only emit fluorescence if the dyes are in spatial proximity in the ligand-bound complex, thus indicating the presence of the analyte, i.e., SAH[23]. […] Accordingly, we evaluated two split aptamer fragments labeled with fluorescein (FAM) and tetramethylrhodamin (TAMRA) as a FRET-capable dye pair: aptaSAH1 and aptaSAH2 (Fig. 1B).
# (§1) To establish our experimental setup, we mixed both aptamer fragment oligonucleotides at equimolar concentrations (final: 50 nM) and titrated series of SAH resp. SAM dilutions to this prototypical SAH biosensor. […] Furthermore, MST assays require only 10 µL of sample volume per capillary compared to 30 µL per well in a 96-well plate supporting high-throughput applications in material consumption.
# MTase reaction mixtures were prepared analogously to the MST-based detection approach but on a 30 µL scale (minimum volume for 96-well half-area plates). Reactions were quenched at a given time by 0.3% SDS and supplemented with 3 µL of the 10× aptamer-containing detection master mix. Reaction mixtures were transferred in technical triplicates to black Greiner 96-well half-area plate and incubated for 1 h at room temperature. Afterward, plates were measured using a Tecan Spark 10 M plate reader equipped with a monochromator setup (λex = 485 nm; λem = 600 nm). Statistical analysis and plotting were performed in GraphPad Prism 7.01.
# [2] = target: aptaSAH1&2 SAH split aptamer; test: Split aptamer (aptaSAH1&2) MST ligand titration; assay type: binding, D. aromatica; details: MST, aptaSAH1&2 each 50 nM
# Method: as §1
# To evaluate the effect of inhibitors on DNMT2 activity, we used two known inhibitors, SHO108 and SH112. These SAH derivatives were selected based on their documented efficacy for DNMT2[8],[26].
# For MTase assay detection by MST, enzyme reaction mixtures with a total volume of 10 µL per single treatment condition were prepared and incubated for the desired reaction times. Inhibitors were added from corresponding DMSO stocks to a final DMSO concentration of max. 5%. Afterward, reactions were quenched at a given reaction time by the addition of 1 µL sodium dodecyl sulfate (SDS, solution, 3% in water) per 10 µL reaction mixture and mixed well by pipetting. Subsequently, 1 µL of a 10× aptamer-containing detection master mix (200 mM Tris, pH 8.5, 200 mM MgCl2, 3 M NaCl, 10 mM urea, 0.2% Brij, 500 nM aptaSAH1, 500 nM aptaSAH2) was added to the quenched MTase reaction and incubated for 1 h at room temperature. Reaction mixtures were loaded directly to MST capillaries without further purification or sample processing.
# MST experiments were carried out in at least technical triplicates using a Monolith NT.115 instrument (NanoTemper Technologies) using Monolith standard capillaries and the blue excitation laser setup. The instrument was calibrated according to the manufacturer’s instructions. General settings were applied for all MST experiments as follows: manual temperature control: 25 °C, fluorescence measurement before MST: 4 s, MST (IR laser) on: 20 s, fluorescence after MST: 2 s, delay: 25 s. The laser power was adjusted to optimize the signal-to-noise ratio and the fluorescence signal. LED and MST power settings were chosen individually for each sample by adjusting the LED power to yield fluorescence signals of at least 300 units (blue laser) or 3000 units (red laser) and the MST power to achieve an appropriate thermophoretic response (standard setting: medium MST power). MST measurements were analyzed using the NT analysis software (version 1.5.41) and exported for statistical analysis and plotting in GraphPad Prism 7.01.
# AptaFluor SAH aptamer = test: Commercial AptaFluor SAH assay kit (HTRF) ligand titration; assay type: binding; details: read-out: affinity KD
# Method: To assess the suitability for sensing SAH in a steady-state enzymatic assay, we examined statistical Z-values at 50 nM SAH (which correspond to 5% SAM-to-SAH substrate conversion from 1 µM SAM substrate in a common RNA MTase reaction). By this, we determined an MST-based Z-value of 0.84 (FRET assay: Z = 0.57) highlighting the suitability of this framework for high-throughput screening (HTS) assay setups (Fig. 1E). For these reasons, we prefer the usage of the MST-based assay which the following chapter will focus on, but it is noteworthy that plate reader-based FRET assays were also found equally functional. Furthermore, we performed comparative assays with the commercial AptaFluor assay kit, which gave similar results to our assay in all respects (SI Fig. 2): Z-factor at 50 nM SAH = 0.84; SAH resp.
# Radiometric DNMT2 assays were carried out as described previously. HTRF MTase assays with the commercial AptaFluor SAH assay kit (BellBrook Labs) were performed as described in the manufacturer’s manual in 96-well format.
# SI Figure 1 . Displacement of FTAD by literature-known inhibitors in a microscale thermophoresis displacement a s s a y. Data is given as mean ± SD of triplicates. (A) MST traces of SHO108. […]
# SI Figure 2. […] (B) D o se -response curves of the AptaFluor assay in the presence of the SAH or SAM ligand by plate reader-ba s e d HT R F ass ays (λex=33 2 nm; λem=620/665 nm). […]
# METTL3/14 = target: T1, METTL3/14 (Homo sapiens, UniProt Q86U44); test: METTL3/14 enzymatic split aptamer MST assay; assay type: biochemical; details: 10 nM MTase, 120 nM RNA substrate, variable SAM; read-out: Michaelis-Menten constant KM
# T1 construct: purchased BPS Bioscience BPS-100105
# T1 sequence (Q86U44 2-580 limits assumed): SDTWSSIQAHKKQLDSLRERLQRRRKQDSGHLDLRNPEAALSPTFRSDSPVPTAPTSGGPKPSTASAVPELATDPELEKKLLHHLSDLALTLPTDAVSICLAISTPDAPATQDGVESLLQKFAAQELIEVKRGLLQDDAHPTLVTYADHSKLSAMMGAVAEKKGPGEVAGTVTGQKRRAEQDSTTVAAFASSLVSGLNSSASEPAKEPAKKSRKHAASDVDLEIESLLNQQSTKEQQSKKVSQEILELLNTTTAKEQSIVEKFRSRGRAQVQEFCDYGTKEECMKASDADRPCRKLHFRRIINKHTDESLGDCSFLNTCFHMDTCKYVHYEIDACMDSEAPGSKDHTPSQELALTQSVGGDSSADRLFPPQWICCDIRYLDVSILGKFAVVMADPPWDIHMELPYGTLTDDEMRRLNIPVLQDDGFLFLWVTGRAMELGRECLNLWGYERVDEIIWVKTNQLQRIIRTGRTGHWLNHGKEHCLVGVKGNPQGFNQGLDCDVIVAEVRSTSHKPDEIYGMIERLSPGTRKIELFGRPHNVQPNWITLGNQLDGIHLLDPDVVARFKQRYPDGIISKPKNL
# T1 sequence (Q9HCE5 2-456 partner limits assumed): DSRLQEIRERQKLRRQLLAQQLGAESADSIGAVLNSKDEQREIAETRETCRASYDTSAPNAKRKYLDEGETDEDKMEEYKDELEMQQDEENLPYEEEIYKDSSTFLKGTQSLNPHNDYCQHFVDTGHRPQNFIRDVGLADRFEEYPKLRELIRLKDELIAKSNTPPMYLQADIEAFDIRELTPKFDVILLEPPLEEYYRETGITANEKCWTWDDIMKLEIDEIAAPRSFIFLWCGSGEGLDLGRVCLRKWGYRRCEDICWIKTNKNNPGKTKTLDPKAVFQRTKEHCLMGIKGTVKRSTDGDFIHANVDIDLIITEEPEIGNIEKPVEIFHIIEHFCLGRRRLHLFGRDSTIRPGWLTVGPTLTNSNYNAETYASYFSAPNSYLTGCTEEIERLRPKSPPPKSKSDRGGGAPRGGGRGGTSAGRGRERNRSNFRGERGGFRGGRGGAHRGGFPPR
# Method: Specifically, we studied the m^6A MTase METTL3/14 and the m^7G MTase S. aureus TrmD.
# For MTase assay detection by MST, enzyme reaction mixtures with a total volume of 10 µL per single treatment condition were prepared and incubated for the desired reaction times. Inhibitors were added from corresponding DMSO stocks to a final DMSO concentration of max. […] Afterward, reactions were quenched at a given reaction time by the addition of 1 µL sodium dodecyl sulfate (SDS, solution, 3% in water) per 10 µL reaction mixture and mixed well by pipetting. […]
# MST experiments were carried out in at least technical triplicates using a Monolith NT.115 instrument (NanoTemper Technologies) using Monolith standard capillaries and the blue excitation laser setup. […] General settings were applied for all MST experiments as follows: manual temperature control: 25 °C, fluorescence measurement before MST: 4 s, MST (IR laser) on: 20 s, fluorescence after MST: 2 s, delay: 25 s. The laser power was adjusted to optimize the signal-to-noise ratio and the fluorescence signal. LED and MST power settings were chosen individually for each sample by adjusting the LED power to yield fluorescence signals of at least 300 units (blue laser) or 3000 units (red laser) and the MST power to achieve an appropriate thermophoretic response (standard setting: medium MST power). […]
# S. aureus TrmD = target: T2, S. aureus TrmD (Staphylococcus aureus, UniProt Q2FZ43); test: S. aureus TrmD enzymatic split aptamer MST assay; assay type: biochemical
# T2 construct: made in house
# T2 sequence (Q2FZ43 1-245): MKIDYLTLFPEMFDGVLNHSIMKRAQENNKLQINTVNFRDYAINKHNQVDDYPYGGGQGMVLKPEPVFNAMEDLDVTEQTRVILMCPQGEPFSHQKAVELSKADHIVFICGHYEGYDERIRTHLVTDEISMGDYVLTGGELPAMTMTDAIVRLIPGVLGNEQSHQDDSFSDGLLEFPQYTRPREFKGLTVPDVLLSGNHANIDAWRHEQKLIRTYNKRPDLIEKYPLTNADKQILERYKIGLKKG
# Method: DNMT2 & S. aureus TrmD: 100 mM Tris-HCl, pH 8, 100 mM NH4OAc, 0.1 mM EDTA, 10 mM MgCl2, 10 mM DTT. For TrmD: 50 nM TrmD, 2 µM SAM, 1 µM tRNA^Leu.
# For MTase assay detection by MST, enzyme reaction mixtures with a total volume of 10 µL per single treatment condition were prepared and incubated for the desired reaction times. Inhibitors were added from corresponding DMSO stocks to a final DMSO concentration of max. 5%. Afterward, reactions were quenched at a given reaction time by the addition of 1 µL sodium dodecyl sulfate (SDS, solution, 3% in water) per 10 µL reaction mixture and mixed well by pipetting. Subsequently, 1 µL of a 10× aptamer-containing detection master mix (200 mM Tris, pH 8.5, 200 mM MgCl2, 3 M NaCl, 10 mM urea, 0.2% Brij, 500 nM aptaSAH1, 500 nM aptaSAH2) was added to the quenched MTase reaction and incubated for 1 h at room temperature. […]
# MST experiments were carried out in at least technical triplicates using a Monolith NT.115 instrument (NanoTemper Technologies) using Monolith standard capillaries and the blue excitation laser setup. […] General settings were applied for all MST experiments as follows: manual temperature control: 25 °C, fluorescence measurement before MST: 4 s, MST (IR laser) on: 20 s, fluorescence after MST: 2 s, delay: 25 s. The laser power was adjusted to optimize the signal-to-noise ratio and the fluorescence signal. […]
# TrmD = details: read-out: reported IC50; cited from earlier work
# metH aptamer = system: metH aptamer; set-up: method as in PMID 20864509; details: cited from earlier work
Structure (SMILES),Kd [1] [µM],Kd [2] [µM],Kd (AptaFluor SAH aptamer) [µM],Km (METTL3/14) [µM],IC50 (S. aureus TrmD) [µM],IC50 (TrmD) [µM],SAH over SAM selectivity ([1]; from FRET apparent KD values) [fold],selectivity over other nucleosides (including SAM) (metH aptamer),"Kd (metH aptamer; isothermal titration calorimetry, read-out: apparent dissociation constant KD) [µM]"
"C[S+](CC[C@H](N)C(=O)[O-])C[C@H]1O[C@@H](n2cnc3c(N)ncnc32)[C@H](O)[C@@H]1O (stereo partly drawn) [SAM, S-adenosylmethionine]",5.3,2.5,5.7,0.106,,,,,
"O=c1nc[nH]c2scc(-c3ccccc3)c12 [phenylthieno-pyrimidinone, 5-phenylthieno[2,3-d]pyrimidin-4(1H)-one]",,,,,8.45,11,,,
"Nc1ncnc2c1ncn2[C@@H]1O[C@H](CSCC[C@H](N)C(=O)O)[C@@H](O)[C@H]1O [SAH, S-adenosylhomocysteine]",0.018,0.024,0.026,,,,300,at least 100 fold,~0.02
